Data published in ChEMBL document CHEMBL5696441 (Nat Chem Biol, 2011).

Key:
[1] = biological target: T1, Testis-specific serine/threonine-protein kinase 1 (Homo sapiens) (UniProt Q9BXA7); assay: Inhibition of TSSK1B (unknown origin) assessed as remaining activity at 1 uM by Kinome scan method relative to control
T1 sequence (whole entry): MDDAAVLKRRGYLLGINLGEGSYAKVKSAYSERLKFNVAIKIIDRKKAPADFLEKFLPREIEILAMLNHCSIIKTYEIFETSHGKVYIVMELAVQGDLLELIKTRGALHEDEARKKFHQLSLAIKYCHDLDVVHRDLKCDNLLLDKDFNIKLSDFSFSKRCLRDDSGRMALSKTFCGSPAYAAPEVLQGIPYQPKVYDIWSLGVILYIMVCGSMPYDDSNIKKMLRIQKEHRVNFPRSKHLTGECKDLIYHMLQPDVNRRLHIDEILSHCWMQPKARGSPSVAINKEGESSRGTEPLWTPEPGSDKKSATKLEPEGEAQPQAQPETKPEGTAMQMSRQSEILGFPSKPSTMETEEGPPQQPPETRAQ

[2] = biological target: Epithelial discoidin domain-containing receptor 1 (Homo sapiens) (UniProt Q08345); assay: Inhibition of DDR1 (unknown origin) assessed as remaining activity at 1 uM by Kinome scan method relative to control
[3] = biological target: Wee1-like protein kinase (Homo sapiens) (UniProt P30291); assay: Inhibition of WEE1 (unknown origin) assessed as remaining activity at 1 uM by Kinome scan method relative to control
[4] = biological target: Tyrosine-protein kinase Blk (Homo sapiens) (UniProt P51451); assay: Inhibition of BLK (unknown origin) assessed as remaining activity at 1 uM by Kinome scan method relative to control
[5] = biological target: Serine/threonine-protein kinase 38 (Homo sapiens) (UniProt Q15208); assay: Inhibition of NDR1 (unknown origin) assessed as remaining activity at 1 uM by Kinome scan method relative to control
[6] = biological target: Serine/threonine-protein kinase STK11 (Homo sapiens) (UniProt Q15831); assay: Inhibition of LKB1 (unknown origin) assessed as remaining activity at 1 uM by Kinome scan method relative to control
[7] = biological target: Death-associated protein kinase 2 (Homo sapiens) (UniProt Q9UIK4); assay: Inhibition of DAPK2 (unknown origin) assessed as remaining activity at 1 uM by Kinome scan method relative to control
[8] = biological target: T2, Serine/threonine-protein kinase Nek1 (Homo sapiens) (UniProt Q96PY6); assay: Inhibition of NEK1 (unknown origin) assessed as remaining activity at 1 uM by Kinome scan method relative to control
T2 sequence (whole entry): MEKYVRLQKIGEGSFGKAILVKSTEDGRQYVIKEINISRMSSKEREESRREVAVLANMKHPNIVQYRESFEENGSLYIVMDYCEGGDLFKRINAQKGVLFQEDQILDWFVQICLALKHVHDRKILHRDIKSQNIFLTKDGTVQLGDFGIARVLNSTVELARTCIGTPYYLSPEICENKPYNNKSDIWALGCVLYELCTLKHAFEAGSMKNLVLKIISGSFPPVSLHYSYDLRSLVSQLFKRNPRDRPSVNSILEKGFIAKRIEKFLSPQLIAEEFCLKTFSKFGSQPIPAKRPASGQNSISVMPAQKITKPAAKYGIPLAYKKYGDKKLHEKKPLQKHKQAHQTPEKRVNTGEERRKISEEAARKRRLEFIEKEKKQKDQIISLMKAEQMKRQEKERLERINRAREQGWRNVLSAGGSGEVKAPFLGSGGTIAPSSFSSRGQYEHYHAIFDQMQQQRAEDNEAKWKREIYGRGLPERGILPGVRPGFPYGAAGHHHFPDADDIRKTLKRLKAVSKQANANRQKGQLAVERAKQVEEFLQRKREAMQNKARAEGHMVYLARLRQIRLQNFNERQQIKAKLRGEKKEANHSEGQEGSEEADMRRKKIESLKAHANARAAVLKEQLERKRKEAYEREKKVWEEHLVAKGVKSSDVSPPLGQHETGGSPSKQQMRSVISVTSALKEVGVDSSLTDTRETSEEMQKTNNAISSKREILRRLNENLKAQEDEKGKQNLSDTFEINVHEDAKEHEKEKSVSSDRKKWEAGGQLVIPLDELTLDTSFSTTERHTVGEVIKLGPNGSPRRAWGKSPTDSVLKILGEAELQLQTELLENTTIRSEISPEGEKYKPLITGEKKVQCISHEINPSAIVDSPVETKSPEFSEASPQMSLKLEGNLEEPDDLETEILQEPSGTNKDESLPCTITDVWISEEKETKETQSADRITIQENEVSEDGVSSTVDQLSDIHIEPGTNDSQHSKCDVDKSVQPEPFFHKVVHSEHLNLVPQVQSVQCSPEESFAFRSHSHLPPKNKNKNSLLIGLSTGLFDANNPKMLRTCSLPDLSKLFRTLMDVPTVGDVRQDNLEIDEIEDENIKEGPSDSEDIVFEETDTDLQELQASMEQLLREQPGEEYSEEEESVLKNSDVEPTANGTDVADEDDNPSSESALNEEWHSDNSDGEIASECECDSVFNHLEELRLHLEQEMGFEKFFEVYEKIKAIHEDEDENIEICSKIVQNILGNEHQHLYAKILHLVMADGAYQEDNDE

[9] = biological target: T3, Serine/threonine-protein kinase BRSK1 (Homo sapiens) (UniProt Q8TDC3); assay: Inhibition of BRSK1 (unknown origin) assessed as remaining activity at 1 uM by Kinome scan method relative to control
T3 sequence (whole entry): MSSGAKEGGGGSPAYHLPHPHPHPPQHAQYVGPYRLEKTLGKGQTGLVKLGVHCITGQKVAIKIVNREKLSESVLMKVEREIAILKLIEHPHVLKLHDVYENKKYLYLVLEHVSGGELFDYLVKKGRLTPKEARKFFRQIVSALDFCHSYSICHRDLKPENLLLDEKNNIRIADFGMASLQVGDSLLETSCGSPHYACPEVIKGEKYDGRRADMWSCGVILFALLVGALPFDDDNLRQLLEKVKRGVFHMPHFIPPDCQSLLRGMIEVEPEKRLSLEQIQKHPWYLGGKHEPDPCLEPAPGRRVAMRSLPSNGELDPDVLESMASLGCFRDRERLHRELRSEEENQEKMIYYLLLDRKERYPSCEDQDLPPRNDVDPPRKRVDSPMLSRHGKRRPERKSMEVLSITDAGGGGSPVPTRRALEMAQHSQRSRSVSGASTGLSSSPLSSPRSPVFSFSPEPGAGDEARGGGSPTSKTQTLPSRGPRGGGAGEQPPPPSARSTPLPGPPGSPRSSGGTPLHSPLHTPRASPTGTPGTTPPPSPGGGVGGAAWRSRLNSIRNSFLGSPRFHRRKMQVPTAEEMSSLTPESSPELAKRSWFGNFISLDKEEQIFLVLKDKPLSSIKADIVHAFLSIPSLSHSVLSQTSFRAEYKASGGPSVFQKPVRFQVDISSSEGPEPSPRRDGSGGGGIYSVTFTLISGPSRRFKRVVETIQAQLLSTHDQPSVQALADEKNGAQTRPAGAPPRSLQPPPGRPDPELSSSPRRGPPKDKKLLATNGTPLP

Wee1-like protein kinase (Homo sapiens), sequence (P30291 whole entry, looked up): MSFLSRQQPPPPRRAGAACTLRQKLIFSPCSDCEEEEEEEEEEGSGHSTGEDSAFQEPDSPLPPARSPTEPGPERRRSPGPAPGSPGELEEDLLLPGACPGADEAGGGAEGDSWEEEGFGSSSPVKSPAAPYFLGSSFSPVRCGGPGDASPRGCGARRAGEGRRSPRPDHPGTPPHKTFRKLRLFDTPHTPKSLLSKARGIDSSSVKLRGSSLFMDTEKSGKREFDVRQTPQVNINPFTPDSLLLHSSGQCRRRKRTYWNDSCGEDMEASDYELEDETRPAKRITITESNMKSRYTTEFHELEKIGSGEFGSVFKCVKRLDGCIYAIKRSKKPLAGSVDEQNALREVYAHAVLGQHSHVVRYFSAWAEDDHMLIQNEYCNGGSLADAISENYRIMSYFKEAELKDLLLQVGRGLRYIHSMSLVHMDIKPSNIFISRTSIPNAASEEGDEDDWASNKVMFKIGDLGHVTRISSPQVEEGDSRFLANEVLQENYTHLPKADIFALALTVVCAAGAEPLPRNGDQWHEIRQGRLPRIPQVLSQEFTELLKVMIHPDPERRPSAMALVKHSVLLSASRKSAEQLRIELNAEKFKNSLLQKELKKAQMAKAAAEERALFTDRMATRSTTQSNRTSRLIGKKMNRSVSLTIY
Death-associated protein kinase 2 (Homo sapiens), sequence (Q9UIK4 whole entry, looked up): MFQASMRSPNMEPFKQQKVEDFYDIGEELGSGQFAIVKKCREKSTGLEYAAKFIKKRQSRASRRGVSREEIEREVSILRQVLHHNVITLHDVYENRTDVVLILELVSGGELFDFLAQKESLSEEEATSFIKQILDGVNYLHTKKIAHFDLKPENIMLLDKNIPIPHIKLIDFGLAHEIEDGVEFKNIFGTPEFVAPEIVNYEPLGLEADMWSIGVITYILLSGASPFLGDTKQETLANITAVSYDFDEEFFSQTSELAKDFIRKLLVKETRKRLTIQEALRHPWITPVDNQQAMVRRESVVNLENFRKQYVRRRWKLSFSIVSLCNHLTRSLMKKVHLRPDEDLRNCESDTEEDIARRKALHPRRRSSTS
Tyrosine-protein kinase Blk (Homo sapiens), sequence (P51451 2-505 limits assumed): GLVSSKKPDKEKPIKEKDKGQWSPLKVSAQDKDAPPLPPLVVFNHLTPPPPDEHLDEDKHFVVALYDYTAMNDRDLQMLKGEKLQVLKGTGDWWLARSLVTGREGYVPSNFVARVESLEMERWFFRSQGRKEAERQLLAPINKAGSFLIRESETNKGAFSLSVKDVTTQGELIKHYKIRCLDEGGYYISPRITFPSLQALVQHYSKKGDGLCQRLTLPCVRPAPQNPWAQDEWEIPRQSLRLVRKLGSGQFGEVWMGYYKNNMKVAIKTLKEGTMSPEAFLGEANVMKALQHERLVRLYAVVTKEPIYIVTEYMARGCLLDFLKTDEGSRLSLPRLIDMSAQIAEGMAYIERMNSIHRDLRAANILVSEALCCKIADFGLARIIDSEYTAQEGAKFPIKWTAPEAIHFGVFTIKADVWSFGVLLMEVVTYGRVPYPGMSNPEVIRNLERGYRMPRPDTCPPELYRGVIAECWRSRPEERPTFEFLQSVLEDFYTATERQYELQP
Serine/threonine-protein kinase 38 (Homo sapiens), sequence (Q15208 2-465 limits assumed): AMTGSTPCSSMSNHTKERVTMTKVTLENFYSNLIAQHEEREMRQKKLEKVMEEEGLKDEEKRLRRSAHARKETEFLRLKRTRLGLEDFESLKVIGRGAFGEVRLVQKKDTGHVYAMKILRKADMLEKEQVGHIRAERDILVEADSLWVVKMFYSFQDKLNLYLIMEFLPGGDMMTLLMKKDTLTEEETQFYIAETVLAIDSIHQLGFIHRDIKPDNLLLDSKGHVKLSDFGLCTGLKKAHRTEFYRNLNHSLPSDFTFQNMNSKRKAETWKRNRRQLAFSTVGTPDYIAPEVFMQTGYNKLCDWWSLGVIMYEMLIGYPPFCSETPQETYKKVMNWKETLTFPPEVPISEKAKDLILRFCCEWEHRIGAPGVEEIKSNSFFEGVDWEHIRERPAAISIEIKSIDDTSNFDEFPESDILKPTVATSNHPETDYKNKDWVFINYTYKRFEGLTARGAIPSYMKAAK
Serine/threonine-protein kinase STK11 (Homo sapiens), sequence (Q15831 whole entry): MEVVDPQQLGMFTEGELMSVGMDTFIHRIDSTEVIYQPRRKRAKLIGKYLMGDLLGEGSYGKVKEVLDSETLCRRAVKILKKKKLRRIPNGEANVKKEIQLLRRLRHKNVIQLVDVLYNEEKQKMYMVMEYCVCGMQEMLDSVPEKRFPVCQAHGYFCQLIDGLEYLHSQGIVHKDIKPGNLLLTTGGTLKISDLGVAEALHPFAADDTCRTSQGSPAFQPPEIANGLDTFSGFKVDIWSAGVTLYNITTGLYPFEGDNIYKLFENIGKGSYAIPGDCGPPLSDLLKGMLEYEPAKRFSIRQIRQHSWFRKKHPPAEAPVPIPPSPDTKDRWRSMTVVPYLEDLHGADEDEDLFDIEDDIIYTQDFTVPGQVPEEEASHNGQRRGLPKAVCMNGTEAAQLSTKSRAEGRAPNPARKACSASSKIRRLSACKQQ
Epithelial discoidin domain-containing receptor 1 (Homo sapiens), sequence (Q08345 whole entry, the tested form may be a part): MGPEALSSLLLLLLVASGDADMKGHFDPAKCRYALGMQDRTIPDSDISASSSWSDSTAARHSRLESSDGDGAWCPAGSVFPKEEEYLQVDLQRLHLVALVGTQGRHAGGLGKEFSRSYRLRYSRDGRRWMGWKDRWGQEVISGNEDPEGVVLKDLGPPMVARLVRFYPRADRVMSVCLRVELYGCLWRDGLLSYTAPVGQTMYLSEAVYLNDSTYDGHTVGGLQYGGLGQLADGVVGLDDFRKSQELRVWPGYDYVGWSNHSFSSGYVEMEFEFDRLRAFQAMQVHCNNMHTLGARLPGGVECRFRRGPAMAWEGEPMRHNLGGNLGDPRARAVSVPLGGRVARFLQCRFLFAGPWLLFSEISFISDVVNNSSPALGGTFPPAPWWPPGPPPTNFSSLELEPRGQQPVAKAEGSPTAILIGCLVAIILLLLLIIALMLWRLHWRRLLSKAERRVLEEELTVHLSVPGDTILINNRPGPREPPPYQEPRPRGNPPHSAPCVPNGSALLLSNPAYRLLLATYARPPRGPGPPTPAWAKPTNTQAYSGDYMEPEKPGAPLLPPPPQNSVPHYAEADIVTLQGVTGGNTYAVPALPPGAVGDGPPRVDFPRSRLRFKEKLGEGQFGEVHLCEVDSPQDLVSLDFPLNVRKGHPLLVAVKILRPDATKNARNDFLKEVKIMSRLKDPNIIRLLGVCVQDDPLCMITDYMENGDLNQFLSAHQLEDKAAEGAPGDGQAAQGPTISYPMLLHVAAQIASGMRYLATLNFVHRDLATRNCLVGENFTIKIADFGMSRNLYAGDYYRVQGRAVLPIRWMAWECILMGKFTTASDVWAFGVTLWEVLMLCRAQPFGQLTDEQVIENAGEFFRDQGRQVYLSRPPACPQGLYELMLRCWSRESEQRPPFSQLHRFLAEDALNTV

Compound	Activity [1]	Activity [2]	Activity [3]	Activity [4]	Activity [5]	Activity [6]	Activity [7]	Activity [8]	Activity [9]
Nc1ccccc1Nc1ccc2c(c1)CCc1ccccc1C2=O	95%	80%	98%	66%	81%	98%	99%	90%	98%
O=C1c2ccc(Nc3ccc(F)cc3F)cc2CCc2ccc(OC[C@H](O)CO)cc21 [Skepinone-L]	84%	85%	100%	97%	87%	100%	93%	91%	100%
